From patent publication US10300048B2, “Thiazolidinones as cellular anandamide uptake inhibitors and their use in the treatment of psychiatric or neurological disorders and inflammation, in particular neuroinflammation” (UNIVERSITAT BERN, priority 2014, dated 2019)
Read-outs that look alike come from different tables or passages of the source.

Key:
FAAH = FAAH (Homo sapiens (Human), UniProt O00519); test: FAAH activity: hydrolysis of [3H]-AEA in U937 cell homogenates; type: biochemical; conditions: U937 cell homogenate, read-out: FAAH inhibition IC50
Experimental: Hydrolysis of [^3H]-AEA by FAAH was determined as previously described in cell homogenates of U937 cells (0.18 mg protein) (Omeir et al., 1999, Biochem Biophys Res Commun, 264, 316-20; Mor et al., 2004, J Med Chem, 47, 4998-5008). Protein amounts of cell homogenates corresponded to 0.5×10^6 cells (U937), to assure best possible comparability of IC50 values as used for the AEA cellular uptake assays. URB597 was used as positive control. Protein quantification was performed using a BCA assay (Thermo Scientific). Enzyme activity was assessed by addition of vehicle or compounds in 10 μL DMSO to 490 μL homogenate in 10 mM Tris HCl, 1 mM EDTA, 0.1% (w/v) BSA fatty acid free, pH=8 and incubation for 15 min at 37° C. After, a mixture of AEA plus [ethanolamine-1-^3H]-AEA (0.5 nM) at final 100 nM was added to the homogenates and incubated for 15 min at 37° C. The reaction was stopped by addition of 1 mL ice-cold CHCl3:MeOH (1:1) followed by vigorous vortexing. Phase separation was achieved by centrifugation at 10′000×g at 4° C. for 10 min. Radioactivity of the separated aqueous phase (upper phase) containing [^3H-ethanolamine] or [^3H-glycerol] was measured by liquid scintillation counting on a Tri-Carb 2100 TR liquid scintillation analyzer after addition of 3.5 mL Ultima Gold scintillation cocktail (PerkinElmer Life Sciences). Results are expressed as hydrolysis of tritium substrate in percent of vehicle treated control. IC50 values were calculated by GraphPad®. Data are reported as means of n=3 independent experiments performed in triplicates.
(§1) Statistical analysis and IC50 values were determined using GraphPad® Prism 5.0 (GraphPad® Software, San Diego, Calif., US). Inhibition curves were obtained by non-linear regression using the built-in log(inhibitor) vs. response-variable slope (four parameters) function. Results were calculated as % of vehicle control of the corresponding fraction (cells, aqueous phase) if not mentioned else. In vivo results are shown in absolute values and were analyzed by a one-way ANOVA following a Tukey's multiple comparison test or student's t-test. If not indicated else the results were compared vs. vehicle (CTRL). *** P<0.001, ** P<0.01, * P<0.05, ns=not significant P>0.05.

hCB1 receptor = hCB1 receptor (Homo sapiens (Human), UniProt P21554); test: Radioligand CB receptor binding, [3H]-CP55,940 displacement on CHO-K1 hCB1 membranes; conditions: for CB1 receptor binding (%) at 10 µM: Table 4
Experimental: Stably transfected CHO-K1 cells expressing hCB1 or hCB2 receptors (Gertsch et al., 2008, Proc Natl Acad Sci 105, 9099-104) were cultured in T150 cm^2 flasks up to 90% confluence. The medium was removed and cells were washed twice with PBS, 37° C. 10 mL of PBS was added and the cells were scraped and transferred into a falcon tube following homogenization by a Polytron PT1300D for 5 min at 30 krpm. Then, the homogenate was centrifuged (1400×g, 5 min) to remove debris. The supernatant was subjected to ultracentrifugation (64000×g, 45 min, 4° C.) to separate cytosolic from the membrane fraction. The supernatant was discharged and the pellet resuspended in PBS by sonication. Protein quantity was determined by BCA assay (Thermo Scientific) and aliquots of 500 μL were stored at −80° C. until use.
Radioligand CB Receptor Binding
Binding properties of ETI-T compounds to hCB1 or hCB2 receptors were performed as previously reported in a [^3H]-CP55,940 displacement assay (Gertsch et al., 2008, Proc Natl Acad Sci 105, 9099-104). WIN 55,212-2 was used as positive control. In brief, 20 μg protein of CHO-K1 hCB1 or hCB2 membrane preparations were thawed on ice and resuspended in a final volume of 500 μL binding buffer (50 mM Tris-HCl, 2.5 mM EDTA, 5 mM MgCl2, 0.5% fatty acid free BSA, pH 7.4) in silanized glass vials. [^3H]-CP55,940 (168 Ci/mmol) (PerkinElmer, Waltham, Mass., US) was added to a final concentration of 0.5 nM followed by the addition of competitors or vehicle in 5 μL DMSO. Membrane binding was equilibrated for 2 h at room temperature (25° C.). Samples were filter through a 0.1% polyethylenimine pre-soaked UniFilter®-96 GF/B plate (PerkinElmer) and washed twelve times with 167 μL ice-cold assay-buffer. The plate was dried, bottom sealed and 45 μL MicroScint 20 scintillation cocktail (PerkinElmer) were added before measured on a PerkinElmer 1450 Microbeta TRILUX liquid scintillation counter. Unspecific binding was determined by WIN 55,212-2, 10 μM and subtracted from all values. […].

BALB/c mice = test: In vivo tetrad test in BALB/c mice; conditions: 5.0 mg/kg i.p., vs. vehicle; for anti-nociceptive effect in the hot plate test / locomotion (RotaRod) / time spent in the immobile state (catalepsy, bar test): 60 min; for body temperature (tetrad test): 1 h post injection
Experimental: In vivo Tetrad Test in BALB/c Mice
In mice cannabimimetic substances induce a characteristic profile of behavioral effects (tetrad) which include suppression of locomotion, antinociception, hypothermia and catalepsy (Martin et al., 1991, Pharmacol Biochem Behav, 40, 471-8; Wiley, 2003, Eur J Pharmacol, 471, 185-93; Howlett et al., 2002, Pharmacol Rev, 54, 161-202). Male BALB/c mice (8 weeks old, 20-25 g body weight) were housed under standard environmental conditions (n=5 per cage) at 22-24° C. under a 12 h to 12 h light-dark cycle supplied with food and water ad libitum. ETI-T compounds were dissolved in pure DMSO and administered intraperitoneally (i.p) at doses of 5.0 mg/kg in 20 μL of vehicle 60 min prior to evaluation of behavioural effects. The tetrad test battery was carried out as follows: Rectal temperature was determined using a Physitemp thermometer (Physitemp Instruments Inc., Clifton, N.J. with a thermocoupled probe 1-2 cm into the rectum. The temperature was measured 10 min before compound administration and 1 h post injection. Changes in rectal temperature were expressed as the difference between basal and post injection temperatures. Catalepsy was determined using the bar test where mice were placed on a bar oriented parallel to and approximately 4-5 cm off of the ground. The duration of the time a mouse remained motionless (except respiration) with its front paws on the bar was scored over 40 s. Hypomotility was determined using the RotaRod performance test based on a rotating rod with forced motor activity being applied to the mouse. The maximal duration of this test was about 120 s at a velocity of 4 rpm. Analgesia was determined by the hot plate test. Mice were place on a heated plate (54-56° C.) in a Plexiglas cylinder for a maximum of 2 min. […] All experiments were repeated independently on different days. Animals were handled according to the guidelines on use and care of experimental animals (Mexican Official Norm NOM-062-ZOO-1999 published by SAGARPA in the Diario Oficial del Gobierno Mexicano, 2001), which is in accordance with the Code of Ethics of the Directive 2010/63/EU.
as §1

hCB1 receptor, sequence (P21554 whole entry): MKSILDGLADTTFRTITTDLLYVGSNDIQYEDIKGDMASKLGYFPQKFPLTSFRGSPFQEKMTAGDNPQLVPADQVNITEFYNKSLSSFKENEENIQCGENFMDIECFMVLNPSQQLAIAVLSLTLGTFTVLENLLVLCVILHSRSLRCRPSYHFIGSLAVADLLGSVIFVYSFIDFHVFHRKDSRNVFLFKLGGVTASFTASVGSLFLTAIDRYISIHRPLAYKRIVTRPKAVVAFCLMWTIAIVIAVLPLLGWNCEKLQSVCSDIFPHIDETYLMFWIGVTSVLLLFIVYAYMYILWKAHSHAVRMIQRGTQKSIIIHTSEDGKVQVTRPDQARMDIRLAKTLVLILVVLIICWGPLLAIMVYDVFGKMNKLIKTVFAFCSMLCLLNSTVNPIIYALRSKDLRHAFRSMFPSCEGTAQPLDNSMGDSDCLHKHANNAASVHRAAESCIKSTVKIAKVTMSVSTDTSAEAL
FAAH, sequence (O00519 whole entry): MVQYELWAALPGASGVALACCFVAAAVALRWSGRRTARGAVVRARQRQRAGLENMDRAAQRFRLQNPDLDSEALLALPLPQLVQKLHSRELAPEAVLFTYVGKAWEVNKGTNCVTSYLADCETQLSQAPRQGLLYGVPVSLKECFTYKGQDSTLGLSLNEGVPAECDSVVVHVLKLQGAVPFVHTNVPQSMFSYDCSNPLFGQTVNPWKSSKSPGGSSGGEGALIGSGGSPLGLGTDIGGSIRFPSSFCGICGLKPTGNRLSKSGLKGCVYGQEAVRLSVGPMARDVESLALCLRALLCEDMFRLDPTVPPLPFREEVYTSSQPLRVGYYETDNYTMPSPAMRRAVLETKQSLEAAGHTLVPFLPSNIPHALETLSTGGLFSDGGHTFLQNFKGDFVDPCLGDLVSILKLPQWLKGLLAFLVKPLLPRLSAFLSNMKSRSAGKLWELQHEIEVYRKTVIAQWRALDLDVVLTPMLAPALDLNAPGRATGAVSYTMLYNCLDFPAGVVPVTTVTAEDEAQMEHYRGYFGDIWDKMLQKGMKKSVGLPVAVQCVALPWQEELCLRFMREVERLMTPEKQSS

IC50 (FAAH; Table 4) [µM] | CB1 receptor binding (%) at 10 µM (hCB1 receptor) [%] | IC50 (FAAH; Table 2) [µM] | CB1 receptor binding % binding at 10 μM (hCB1 receptor; Table 3) [%] | Structure (SMILES) | anti-nociceptive effect in the hot plate test (BALB/c mice) | locomotion (RotaRod) (BALB/c mice) | body temperature (tetrad test) (BALB/c mice) | time spent in the immobile state (catalepsy, bar test) (BALB/c mice)
26.9 | 64 | – | – | COc1cc(/C=C2\S/C(=N\c3ccccc3)N(c3ccccc3)C2=O)ccc1O [Compound 6] | anti-nociceptive effect | reduced locomotion | decreased body temperature | –
60.3 | 24 | 60.3 | 24 | O=C1/C(=C/c2cc(Cl)c(O)c(Cl)c2)S/C(=N\c2ccccc2)N1Cc1ccco1 [Compound 23] | anti-nociceptive effect | – | decreased body temperature | increased time spent in the immobile state
20.4 | 37 | – | – | COc1ccc(/C=C2\S/C(=N\c3ccc(OC)cc3)N(c3ccc(OC)cc3)C2=O)cc1 [Compound 5] | anti-nociceptive effect | reduced locomotion | decreased body temperature | increased time spent in the immobile state
